The values that follow are results of earlier work, collected in patent publication US20070105927A1, “Amorphous rizatriptan benzoate” (Glenmark Pharmaceuticals Limited, priority 2005, published 2007).

The target of data set [1] is human cloned 5-HT1B receptors (Homo sapiens, UniProt P28222). The conditions noted are these: human cloned receptor.
The target in the next data set is T1, 5-HTIF receptor subtype (Homo sapiens, UniProt P30939).
T1 sequence (P30939 1-366): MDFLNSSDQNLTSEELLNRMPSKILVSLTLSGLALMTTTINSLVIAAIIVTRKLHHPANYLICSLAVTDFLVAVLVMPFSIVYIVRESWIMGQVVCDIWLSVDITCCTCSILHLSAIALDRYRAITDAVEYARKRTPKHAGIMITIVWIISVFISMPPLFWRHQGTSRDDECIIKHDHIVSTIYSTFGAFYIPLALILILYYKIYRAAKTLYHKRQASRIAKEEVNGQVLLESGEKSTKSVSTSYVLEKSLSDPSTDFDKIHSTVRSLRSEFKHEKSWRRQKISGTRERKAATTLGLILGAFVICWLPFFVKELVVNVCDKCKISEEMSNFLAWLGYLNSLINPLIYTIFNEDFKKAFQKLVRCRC

Data set [2] has as its system alpha-adrenergic receptors.
The target of data set [3] is human cloned 5-HT1D receptors (Homo sapiens, UniProt P28221). The conditions noted are these: human cloned receptor.
The subject of data set [4] is beta-adrenergic receptors.
For a further data set, the target named is 5-HT7 receptor (Homo sapiens, UniProt P34969).
In another data set the target is 5-HTIE receptor subtype (Homo sapiens, UniProt P28566).
For another data set, the target named is T2, 5-HT1A receptor subtype (Homo sapiens, UniProt P08908).
T2 sequence (P08908 1-422): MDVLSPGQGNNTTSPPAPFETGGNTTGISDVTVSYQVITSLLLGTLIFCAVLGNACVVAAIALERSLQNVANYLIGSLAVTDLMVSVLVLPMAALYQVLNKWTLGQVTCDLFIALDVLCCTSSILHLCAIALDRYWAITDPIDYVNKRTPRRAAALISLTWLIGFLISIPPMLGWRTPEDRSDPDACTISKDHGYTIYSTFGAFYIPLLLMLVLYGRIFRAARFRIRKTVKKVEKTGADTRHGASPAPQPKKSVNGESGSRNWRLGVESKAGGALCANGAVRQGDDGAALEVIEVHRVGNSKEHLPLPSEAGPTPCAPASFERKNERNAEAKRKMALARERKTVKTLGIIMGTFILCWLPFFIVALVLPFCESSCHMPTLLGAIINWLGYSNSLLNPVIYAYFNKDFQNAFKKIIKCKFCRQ

For data set [5] the following is noted: in vivo.

Chain of 5-HTIE receptor subtype (P28566 whole entry): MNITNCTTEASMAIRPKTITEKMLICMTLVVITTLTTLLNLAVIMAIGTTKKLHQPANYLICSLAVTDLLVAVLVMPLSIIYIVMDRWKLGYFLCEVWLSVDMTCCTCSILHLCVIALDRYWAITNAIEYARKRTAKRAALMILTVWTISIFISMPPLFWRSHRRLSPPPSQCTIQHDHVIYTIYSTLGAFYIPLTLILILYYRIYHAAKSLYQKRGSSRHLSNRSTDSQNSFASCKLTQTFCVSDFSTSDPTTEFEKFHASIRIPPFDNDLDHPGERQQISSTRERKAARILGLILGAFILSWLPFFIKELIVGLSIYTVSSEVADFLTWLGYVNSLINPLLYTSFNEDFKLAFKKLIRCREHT
Chain of human cloned 5-HT1B receptors (P28222 whole entry): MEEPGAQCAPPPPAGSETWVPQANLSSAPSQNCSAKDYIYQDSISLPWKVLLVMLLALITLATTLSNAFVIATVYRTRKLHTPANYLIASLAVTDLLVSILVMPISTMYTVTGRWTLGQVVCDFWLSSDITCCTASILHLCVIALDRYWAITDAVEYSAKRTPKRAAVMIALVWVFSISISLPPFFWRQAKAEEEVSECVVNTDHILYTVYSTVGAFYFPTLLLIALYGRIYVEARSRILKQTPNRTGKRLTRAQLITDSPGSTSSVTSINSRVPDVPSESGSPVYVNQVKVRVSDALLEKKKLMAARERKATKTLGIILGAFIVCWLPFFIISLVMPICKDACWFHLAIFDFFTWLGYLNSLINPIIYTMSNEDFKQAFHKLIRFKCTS
Chain of human cloned 5-HT1D receptors (P28221 whole entry): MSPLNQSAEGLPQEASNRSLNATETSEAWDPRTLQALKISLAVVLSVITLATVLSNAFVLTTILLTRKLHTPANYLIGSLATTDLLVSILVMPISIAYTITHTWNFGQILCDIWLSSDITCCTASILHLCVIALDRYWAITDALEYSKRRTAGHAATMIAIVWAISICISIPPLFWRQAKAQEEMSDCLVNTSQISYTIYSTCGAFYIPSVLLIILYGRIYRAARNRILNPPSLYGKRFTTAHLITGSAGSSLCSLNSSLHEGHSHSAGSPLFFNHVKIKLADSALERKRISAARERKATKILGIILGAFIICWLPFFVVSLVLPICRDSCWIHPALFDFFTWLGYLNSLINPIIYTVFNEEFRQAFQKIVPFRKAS
Chain of 5-HT7 receptor (P34969 whole entry): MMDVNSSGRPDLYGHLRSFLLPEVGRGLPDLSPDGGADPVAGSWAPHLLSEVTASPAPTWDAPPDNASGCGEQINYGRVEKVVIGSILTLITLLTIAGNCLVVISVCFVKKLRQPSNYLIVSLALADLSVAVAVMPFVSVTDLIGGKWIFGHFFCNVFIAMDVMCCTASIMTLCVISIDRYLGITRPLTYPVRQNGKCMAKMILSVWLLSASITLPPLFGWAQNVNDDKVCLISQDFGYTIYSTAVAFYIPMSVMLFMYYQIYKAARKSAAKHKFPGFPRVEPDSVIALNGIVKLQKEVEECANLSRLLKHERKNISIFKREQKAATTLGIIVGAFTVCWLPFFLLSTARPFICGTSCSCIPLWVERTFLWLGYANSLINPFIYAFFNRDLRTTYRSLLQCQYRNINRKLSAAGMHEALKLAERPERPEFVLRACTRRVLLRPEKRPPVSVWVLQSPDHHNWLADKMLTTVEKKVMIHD

As to `CN(C)CCc1c[nH]c2ccc(Cn3cncn3)cc12` [Rizatriptan], the “activity at dopaminergic receptors” value in the data set with dopaminergic receptors is “no significant activity”. For the same compound, the “activity at muscarinic receptors” value with muscarinic receptors was “no significant activity”. Further, the “affinity for 5-HT1B receptors” value in data set [1] is on record as “high affinity”. Moreover, the “affinity for 5-HTIF receptor subtype” value at 5-HTIF receptor subtype is “weak affinity”. For the same compound, the “activity at histaminergic receptors” value with histaminergic receptors is given as “no significant activity”. Moreover, in the data set with benzodiazepine receptors, the “activity at benzodiazepine receptors” value is listed as “no significant activity”. Further, the “activity at alpha-adrenergic receptors” value in data set [2] is given as “no significant activity”. Also, the “activity at 5-HT2 receptors” value in the data set with 5-HT2 receptors is reported as “no significant activity”. For the same compound, in data set [3], the “affinity for 5-HT1D receptors” value is recorded as “high affinity”. Further, the “activity at beta-adrenergic receptors” value in data set [4] is recorded as “no significant activity”. Also, the “activity at 5-HT3 receptors” value with 5-HT3 receptors is listed as “no significant activity”. The “affinity for 5-HT7 receptor” value on 5-HT7 receptor is “weak affinity”. For the same compound, the “affinity for 5-HTIE receptor subtype” value at 5-HTIE receptor subtype is given as “weak affinity”. In addition, the “affinity for 5-HT1A receptor subtype” value at 5-HT1A receptor subtype was “weak affinity”.

On to `CO/N=C(\C(=O)N[C@@H]1C(=O)N2C(C(=O)OC(C)OC(C)=O)=C(COC(N)=O)CS[C@H]12)c1ccco1` (stereo partly drawn) [cefuroxime axietil], for which the bioavailability result in data set [5] is given as “much higher bioavailability than the crystalline forms”.
